Data taken from patent US20250115597A1, “TYK2 INHIBITORS AND COMPOSITIONS AND METHODS THEREOF” (LYNK PHARMACEUTICALS CO. LTD., priority 2021, published 2025).

Biological target: T1, Ba/F3-FL-TYK2-P760L cells (Homo sapiens, UniProt P29597, P760L, cells depend on it)
T1 construct: BaF3-FL-T2P760L (nM)
Test: Anti-proliferative assay, Ba/F3-FL-TYK2-P760L cells (Cell-Titer Glo)
Type: cell-based
Settings: 72 h, read-out: BaF3-FL-T2P760L IC50
Method in brief: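 Ba/F3 cells made IL-3-independent by TEL-fused or full-length mutant JAK-family kinases, seeded at 2000/well and dosed after 24 h with 9 three-fold dilutions topping at 20 μM. Viability after 72 h at 37 °C, 5% CO2 by Cell-Titer Glo ATP luminescence.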

T1 sequence (P29597 whole entry P760L): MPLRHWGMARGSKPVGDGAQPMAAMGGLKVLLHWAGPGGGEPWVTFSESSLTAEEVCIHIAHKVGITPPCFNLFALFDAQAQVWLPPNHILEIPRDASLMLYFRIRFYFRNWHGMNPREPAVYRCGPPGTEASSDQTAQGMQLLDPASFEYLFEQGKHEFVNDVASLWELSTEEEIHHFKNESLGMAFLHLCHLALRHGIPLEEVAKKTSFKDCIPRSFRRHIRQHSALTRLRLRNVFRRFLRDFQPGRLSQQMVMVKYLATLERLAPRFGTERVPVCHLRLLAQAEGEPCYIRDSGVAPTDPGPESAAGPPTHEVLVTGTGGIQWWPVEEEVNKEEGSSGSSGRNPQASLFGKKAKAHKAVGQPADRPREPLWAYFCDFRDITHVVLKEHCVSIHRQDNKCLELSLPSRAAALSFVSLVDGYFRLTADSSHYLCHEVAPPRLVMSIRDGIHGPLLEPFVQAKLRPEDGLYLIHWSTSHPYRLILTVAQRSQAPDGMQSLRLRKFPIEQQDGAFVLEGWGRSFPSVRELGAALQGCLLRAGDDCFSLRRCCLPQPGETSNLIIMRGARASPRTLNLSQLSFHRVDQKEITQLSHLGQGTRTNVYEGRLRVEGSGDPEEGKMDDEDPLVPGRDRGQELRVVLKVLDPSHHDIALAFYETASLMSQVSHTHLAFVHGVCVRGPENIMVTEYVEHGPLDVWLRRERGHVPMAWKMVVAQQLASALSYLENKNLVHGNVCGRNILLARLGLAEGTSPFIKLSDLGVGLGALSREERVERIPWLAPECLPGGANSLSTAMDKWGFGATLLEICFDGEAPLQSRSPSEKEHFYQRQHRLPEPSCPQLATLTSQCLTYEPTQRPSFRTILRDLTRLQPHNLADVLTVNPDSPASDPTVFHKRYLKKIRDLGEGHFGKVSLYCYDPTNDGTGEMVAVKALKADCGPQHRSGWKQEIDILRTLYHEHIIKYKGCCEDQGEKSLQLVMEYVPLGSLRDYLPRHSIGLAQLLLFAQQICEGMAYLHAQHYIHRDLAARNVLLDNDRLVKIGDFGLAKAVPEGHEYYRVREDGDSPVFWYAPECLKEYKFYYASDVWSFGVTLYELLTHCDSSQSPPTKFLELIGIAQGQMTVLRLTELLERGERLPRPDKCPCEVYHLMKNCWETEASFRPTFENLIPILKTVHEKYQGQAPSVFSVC

Row | Compound | GI50 [nM]
1 | [2H]C([2H])([2H])NC(=O)c1cnc(NC(=O)C2CC2)cc1Nc1nn(C)c2ccn(CC3CC3(F)F)c(=O)c12 (stereo not drawn) [Example 107, 6-(Cyclopropanecarboxamido)-4-((5-((2,2-difluorocyclopropyl)methyl)-1-methyl-4-oxo-4,5-dihydro-1H-pyrazolo[4,3-c]pyridin-3-yl)amino)-N-(methyl-d3)nicotinamide] | 2100
2 | [2H]C([2H])([2H])NC(=O)c1cnc(NC(=O)C2CC2)cc1Nc1cn(C)c2ccn(CCOC)c(=O)c12 [Example 112, 6-(Cyclopropanecarboxamido)-4-((5-(2-methoxyethyl)-1-methyl-4-oxo-4,5-dihydro-1H-pyrrolo[3,2-c]pyridin-3-yl)amino)-N-(methyl-d3)nicotinamide] | 477
3 | [2H]C([2H])([2H])NC(=O)c1cnc(NC(=O)C2CC2)cc1Nc1cn(C)c2ccn(-c3ccn(C)n3)c(=O)c12 [Example 118, 6-(Cyclopropanecarbonylamino)-4-[[1-methyl-5-(1-methylpyrazol-3-yl)-4-oxo-pyrrolo[3,2-c]pyridin-3-yl]amino]-N-(methyl-d3)pyridine-3-carboxamide] | 1060
4 | [2H]C([2H])([2H])NC(=O)c1cnc(Nc2cnn(C3CCOCC3)c2)nc1Nc1cccc(-c2ncn(C)n2)c1OC [Example 30, 4-((2-Methoxy-3-(1-methyl-1H-1,2,4-triazol-3-yl)phenyl)amino)-N-(methyl-d3)-2-((1-(tetrahydro-2H-pyran-4-yl)-1H-pyrazol-4-yl)amino)pyrimidine-5-carboxamide] | 199
5 | [2H]C([2H])([2H])NC(=O)c1cnc(Nc2ccc(F)cn2)cc1Nc1cn(C)c2c(F)cn(C)c(=O)c12 [Example 122, 4-((7-Fluoro-1,5-dimethyl-4-oxo-4,5-dihydro-1H-pyrrolo[3,2-c]pyridin-3-yl)amino)-6-((5-fluoropyridin-2-yl)amino)-N-(methyl-d3)nicotinamide] | 34.7
6 | [2H]C([2H])([2H])NC(=O)c1cnc(NC(=O)C2CC2)cc1Nc1ccc2cnn(C(C)C)c2c1OC([2H])([2H])[2H] [Example 133, 6-(Cyclopropanecarboxamido)-4-((1-isopropyl-7-(methoxy-d3)-1H-indazol-6-yl)amino)-N-(methyl-d3)nicotinamide] | 394
7 | [2H]C([2H])([2H])NC(=O)c1cnc(NC(=O)C2CC2)cc1Nc1ccc2cnn(C3CC3)c2c1OC [Example 143, 6-(Cyclopropanecarboxamido)-4-((1-cyclopropyl-7-methoxy-1H-indazol-6-yl)amino)-N-(methyl-d3)nicotinamide] | 108
8 | CNC(=O)c1cnc(NC(=O)C2CC2)cc1Nc1csc2c(C)cn(C)c(=O)c12 [Example 188, 6-(Cyclopropanecarboxamido)-4-((5,7-dimethyl-4-oxo-4,5-dihydrothieno[3,2-c]pyridin-3-yl)amino)-N-methylnicotinamide] | 267
9 | CNC(=O)c1cnc2nc1Nc1cc(cc(-c3ncn(C)n3)c1OC)COCc1cc(cc(C(F)(F)F)c1)N2 [Example 37, 10-Methoxy-N-methyl-11-(1-methyl-1H-1,2,4-triazol-3-yl)-19-(trifluoromethyl)-15-oxa-2,4,8,23-tetraazatetracyclo[15.3.1.1^{3,7}.1^{9,13}]tricosa-1(20),3,5,7(23),9(22),10,12,17(21),18-nonaene-6-carboxamide] | 988
10 | [2H]C([2H])([2H])NC(=O)c1cnc2cc1Nc1cc(cc(-c3ncn(C4CC4)n3)c1OC)COCc1cc(F)cc(n1)N2 [Example 89, 11-(1-Cyclopropyl-1H-1,2,4-triazol-3-yl)-19-fluoro-10-methoxy-N-(methyl-d3)-15-oxa-2,4,8,21-tetraazatetracyclo[15.3.1.1^{3,7}.1^{9,13}]tricosa-1(21),3,5,7(23),9(22),10,12,17,19-nonaene-6-carboxamide] | 32.2
11 | [2H]C([2H])([2H])NC(=O)c1cnc(Nc2cnn(C3CCOC3)c2)nc1Nc1cccc(-c2ncn(C)n2)c1OC (stereo not drawn) [Example 31, 4-((2-Methoxy-3-(1-methyl-1H-1,2,4-triazol-3-yl)phenyl)amino)-N-(methyl-d3)-2-((1-(tetrahydrofuran-3-yl)-1H-pyrazol-4-yl)amino)pyrimidine-5-carboxamide] | 303
12 | [2H]C([2H])([2H])NC(=O)c1cnc(NC(=O)C2CC2)cc1Nc1cn(C)c2ccn(CC=C)c(=O)c12 [Example 109, 4-((5-Allyl-1-methyl-4-oxo-4,5-dihydro-1H-pyrrolo[3,2-c]pyridin-3-yl)amino)-6-(cyclopropanecarboxamido)-N-(methyl-d3)nicotinamide] | 147
13 | [2H]C([2H])([2H])NC(=O)c1cnc(NC(=O)C2CC2)cc1Nc1csc2cnn(C(C)COC)c(=O)c12 (stereo not drawn) [Example 182, 6-(Cyclopropanecarboxamido)-4-((5-(1-methoxypropan-2-yl)-4-oxo-4,5-dihydrothieno[2,3-d]pyridazin-3-yl)amino)-N-(methyl-d3)nicotinamide] | 491
14 | CNC(=O)c1cnc(Nc2ccc(F)cn2)nc1Nc1cccc(-c2ncn(C)n2)c1OC [Example 5, 2-((5-Fluoropyridin-2-yl)amino)-4-((2-methoxy-3-(1-methyl-1H-1,2,4-triazol-3-yl)phenyl)amino)-N-methylpyrimidine-5-carboxamide] | 1350
15 | [2H]C([2H])([2H])NC(=O)c1cnc(NC(=O)C2CC2)cc1Nc1cn(C)c2ccn(CC3CC3)c(=O)c12 [Example 106, 6-(Cyclopropanecarboxamido)-4-((5-(cyclopropylmethyl)-1-methyl-4-oxo-4,5-dihydro-1H-pyrrolo[3,2-c]pyridin-3-yl)amino)-N-(methyl-d3)nicotinamide] | 206
16 | [2H]C([2H])([2H])NC(=O)c1cnc(NC(=O)C2(C(F)(F)F)CC2)cc1Nc1cn(C)c2ccn(CC)c(=O)c12 [Example 104, 4-[(5-Ethyl-1-methyl-4-oxo-pyrrolo[3,2-c]pyridin-3-yl)amino]-N-(methyl-d3)-6-[[1-(trifluoromethyl)cyclopropanecarbonyl]amino]pyridine-3-carboxamide] | 2420
17 | [2H]C([2H])([2H])NC(=O)c1cnc(Nc2cc(C)c(F)cn2)nc1Nc1cccc(-c2ncn(C)n2)c1OC [Example 59, 2-((5-Fluoro-4-methylpyridin-2-yl)amino)-4-((2-methoxy-3-(1-methyl-1H-1,2,4-triazol-3-yl)phenyl)amino)-N-(methyl-d3)pyrimidine-5-carboxamide] | 1930
18 | CNC(=O)c1cnc(NC(=O)C2CC2)cc1Nc1cn(CCOC)c2ccn([C@H](C)C(F)(F)F)c(=O)c12 (single isomer, unassigned) [Example 201A, (R*)-6-(Cyclopropanecarboxamido)-4-((1-(2-methoxyethyl)-4-oxo-5-(1,1,1-trifluoropropan-2-yl)-4,5-dihydro-1H-pyrrolo[3,2-c]pyridin-3-yl)amino)-N-(methyl-d3)nicotinamide] | 241
19 | [2H]C([2H])([2H])NC(=O)c1cnc(Nc2cnn(C3CC3)c2)nc1Nc1cccc(-c2ncn(C)n2)c1OC [Example 2, 2-[(1-Cyclopropylpyrazol-4-yl)amino]-4-[2-methoxy-3-(1-methyl-1,2,4-triazol-3-yl)anilino]-N-(trideuteromethyl)pyrimidine-5-carboxamide] | 199
20 | [2H]C([2H])([2H])NC(=O)c1cnc(NC(=O)[C@@H]2C[C@@H]2F)cc1Nc1cn(C)c2ccn(CC)c(=O)c12 [Example 102, 4-[(5-Ethyl-1-methyl-4-oxo-pyrrolo[3,2-c]pyridin-3-yl)amino]-6-[[(1S,2S)-2-fluorocyclopropanecarbonyl]amino]-N-(methyl-d3)pyridine-3-carboxamide] | 807
21 | [2H]C([2H])([2H])NC(=O)c1cnc(NC(=O)C2CC2)cc1Nc1cn(C)c2ccn(-c3cc(C)n(C)n3)c(=O)c12 [Example 119, 6-(Cyclopropanecarbonylamino)-4-[[5-(1,5-dimethylpyrazol-3-yl)-1-methyl-4-oxo-pyrrolo[3,2-c]pyridin-3-yl]amino]-N-(methyl-d3)pyridine-3-carboxamide] | 1510
22 | CNC(=O)c1cnc(NC(=O)C2CC2)cc1Nc1cc(Br)c2nn3c(c2c1OC)CCC3 [Example 155, 4-((6-Bromo-9-methoxy-2,3-dihydro-1H-pyrrolo[1,2-b]indazol-8-yl)amino)-6-(cyclopropanecarboxamido)-N-methylnicotinamide] | 902
23 | [2H]C([2H])([2H])NC(=O)c1cnc(NC(=O)C2CC2)cc1Nc1ccn2ncc(C([2H])([2H])[2H])c2c1OC [Example 220, 6-(Cyclopropanecarboxamido)-4-((4-methoxy-3-(methyl-d3)pyrazolo[1,5-a]pyridin-5-yl)amino)-N-(methyl-d3)nicotinamide] | 541
24 | [2H]C([2H])([2H])NC(=O)c1cnc(Nc2ccn(C3CC3)n2)nc1Nc1cccc(-c2ncn(C)n2)c1OC [Example 146, 2-((1-Cyclopropyl-1H-pyrazol-3-yl)amino)-4-((2-methoxy-3-(1-methyl-1H-1,2,4-triazol-3-yl)phenyl)amino)-N-(methyl-d3)pyrimidine-5-carboxamide] | 832
